Tests used:
femoral blood flow = experiment: Femoral blood flow, anaesthetized dogs; format: in vivo, dog; details: 100 mg/kg perorally
Description: Femoral blood flow was measured with an electromagnetic flowmeter (Statham).

[1] = tested on: analgetic effect of Morphine; experiment: Analgetic effect of Morphine; details: in vivo
[2] = French Pat. 1.397.537; cited from earlier work
brain blood circulation = experiment: Effect on the brain blood circulation and on the consumption of oxygen and glucose by the brain, anaesthetized dogs; format: in vivo, dog; parameters: O2 cap. = amount of oxygen supplied to the brain tissues / art. QO2 / QO2: unit not given here; details: 100 mg/kg perorally
Source text: Effect of tetrahydroalstonine on the brain blood circulation and on the consumption of oxygen and of glucose by the brain.
On arterial and venous blood sample the concentration of glucose has been determined enzymatically according to the method of hexokinase (C. Hennon and co-workers).
The determination of the pressure of oxygene (PO2) has been carried out with a polarographic analyser and that of carbonic anhydride (PCO2) in the arterial or venous brain blood, using a Duo-Matic electrometer IL 123.

[3] = tested on: sleep after injection of Nembutal; experiment: Time of inducing the sleep after injection of Nembutal; format: in vivo; details: even at low dosages
arterial blood pressure = details: dog, in vivo, 100 mg/kg
Description: This test has been carried out on lots of five dogs weighing from 16 to 20 kg. The dogs have been previously anaesthetized with chloralose by intravenous way and the intravenous injection of 50 mg heparine for each dog is renewed every 150 minutes.
The average arterial blood pressure is determined by dissection of a brachial artery and insertion of a catheter connected with a Statham P23 Db transducer.
The various parameters have been recorded by means on a polygraph and the hemodynamic survey has been afforded with two tracks-cathodic tubes.

blood-sugar levels = details: rat, thesis (Kocialski); cited from earlier work
[4] = tested on: carrageenin-induced paw oedema; details: rat, thesis (Kocialski); cited from earlier work

COC(=O)C1=CO[C@@H](C)[C@@H]2CN3CCc4c([nH]c5ccccc45)[C@@H]3C[C@H]12 [Tetrahydroalstonine]
vasodilatory effect on the femoral blood flow (femoral blood flow): clear | Femoral vein flow (femoral blood flow; 45 minutes (Table I)): 38,0 | Femoral vein flow (femoral blood flow; 67 minutes (Table I)): 38,7 | Femoral vein flow (femoral blood flow; 90 minutes (Table I)): 37,1 | Femoral vein flow (femoral blood flow; 112 minutes (Table I)): 34,5 | Femoral vein flow (femoral blood flow; 135 minutes (Table I)): 27,7 | effect on the analgetic effect of Morphine [1]: increases the analgetic effect of Morphine | adrenolytic activity [2]: adrenolytic agent | concentration of oxygen in the brain capillars (brain blood circulation): increased | consumption of glucose by the brain (brain blood circulation): increase | consumption of oxygen per minute (brain blood circulation): increased | difference in concentration between arterial and venous oxygen (brain blood circulation): increased | partial pressure in brain venous oxygen (PO2 VC) (brain blood circulation): decrease | Cerebral flow (brain blood circulation; 45 minutes (Table I)): 89,8 ml/mn | Concentration in capillary oxygen (brain blood circulation; 45 minutes (Table I)): 9,3 | Concentration in oxygen/mn (brain blood circulation; 45 minutes (Table I)): 12,8 | Consumption in glucose/mn (brain blood circulation; 45 minutes (Table I)): 7,1 | G/O = consumption in glucose per mn / concentration in oxygen (brain blood circulation; 45 minutes (Table I)): 0,6 | QO2 (brain blood circulation; 45 minutes (Table I)): 14,3 | Cerebral flow (brain blood circulation; 67 minutes (Table I)): 92,4 ml/mn | Concentration in capillary oxygen (brain blood circulation; 67 minutes (Table I)): 8,7 | Concentration in oxygen/mn (brain blood circulation; 67 minutes (Table I)): 12,4 | Consumption in glucose/mn (brain blood circulation; 67 minutes (Table I)): 10,7 | G/O = consumption in glucose per mn / concentration in oxygen (brain blood circulation; 67 minutes (Table I)): 0,9 | QO2 (brain blood circulation; 67 minutes (Table I)): 13,1 | Cerebral flow (brain blood circulation; 90 minutes (Table I)): 95,8 ml/mn | Concentration in capillary oxygen (brain blood circulation; 90 minutes (Table I)): 8,5 | Concentration in oxygen/mn (brain blood circulation; 90 minutes (Table I)): 12,4 | Consumption in glucose/mn (brain blood circulation; 90 minutes (Table I)): 11,3 | G/O = consumption in glucose per mn / concentration in oxygen (brain blood circulation; 90 minutes (Table I)): 1,0 | QO2 (brain blood circulation; 90 minutes (Table I)): 12,6 | Cerebral flow (brain blood circulation; 112 minutes (Table I)): 90,6 ml/mn | Concentration in capillary oxygen (brain blood circulation; 112 minutes (Table I)): 8,4 | Concentration in oxygen/mn (brain blood circulation; 112 minutes (Table I)): 11,5 | Consumption in glucose/mn (brain blood circulation; 112 minutes (Table I)): 12,1 | G/O = consumption in glucose per mn / concentration in oxygen (brain blood circulation; 112 minutes (Table I)): 1,1 | QO2 (brain blood circulation; 112 minutes (Table I)): 12,4 | Cerebral flow (brain blood circulation; 135 minutes (Table I)): 84,8 ml/mn | Concentration in capillary oxygen (brain blood circulation; 135 minutes (Table I)): 8,5 | Concentration in oxygen/mn (brain blood circulation; 135 minutes (Table I)): 11,4 | Consumption in glucose/mn (brain blood circulation; 135 minutes (Table I)): 10,9 | G/O = consumption in glucose per mn / concentration in oxygen (brain blood circulation; 135 minutes (Table I)): 1,2 | QO2 (brain blood circulation; 135 minutes (Table I)): 12,9 | CE p. 100 glucose (brain blood circulation; +45 min. (Table II)): 8,22 p. 100 | DC = Cerebral blood flow (brain blood circulation; +45 min. (Table II)): 90,0 ml/mn | G/O (brain blood circulation; +45 min. (Table II)): 1,08 | O2 /min. (brain blood circulation; +45 min. (Table II)): 6,14 | O2 cap. = amount of oxygen supplied to the brain tissues (brain blood circulation; +45 min. (Table II)): 5,05 | PO2 vc = partial pressure of venous oxygen in the brain (brain blood circulation; +45 min. (Table II)): 28,50 | art. QO2 (brain blood circulation; +45 min. (Table II)): 14,16 | art. pH (brain blood circulation; +45 min. (Table II)): 7,39 | arterial Q gluc. (brain blood circulation; +45 min. (Table II)): 900 mg | consumption in Gluc./min. (brain blood circulation; +45 min. (Table II)): 6,66 | ΔH^+/ΔQO2 (brain blood circulation; +45 min. (Table II)): -4,44 | ΔPCO2/ΔQO2 (brain blood circulation; +45 min. (Table II)): 109,97 | ΔQO2 (brain blood circulation; +45 min. (Table II)): +6,82 | CE p. 100 glucose (brain blood circulation; +67 min. (Table II)): 12,73 p. 100 | DC = Cerebral blood flow (brain blood circulation; +67 min. (Table II)): 99,0 ml/mn | G/O (brain blood circulation; +67 min. (Table II)): 1,38 | O2 /min. (brain blood circulation; +67 min. (Table II)): 8,40 | O2 cap. = amount of oxygen supplied to the brain tissues (brain blood circulation; +67 min. (Table II)): 5,95 | PO2 vc = partial pressure of venous oxygen in the brain (brain blood circulation; +67 min. (Table II)): 24,25 | art. QO2 (brain blood circulation; +67 min. (Table II)): 14,50 | art. pH (brain blood circulation; +67 min. (Table II)): 7,425 | arterial Q gluc. (brain blood circulation; +67 min. (Table II)): 919 mg | consumption in Gluc./min. (brain blood circulation; +67 min. (Table II)): 11,58 | ΔH^+/ΔQO2 (brain blood circulation; +67 min. (Table II)): -6,75 | ΔPCO2/ΔQO2 (brain blood circulation; +67 min. (Table II)): 114,84 | ΔQO2 (brain blood circulation; +67 min. (Table II)): +8,49 | CE p. 100 glucose (brain blood circulation; +90 min. (Table II)): 11,70 p. 100 | DC = Cerebral blood flow (brain blood circulation; +90 min. (Table II)): 112,5 ml/mn | G/O (brain blood circulation; +90 min. (Table II)): 1,20 | O2 /min. (brain blood circulation; +90 min. (Table II)): 10,38 | O2 cap. = amount of oxygen supplied to the brain tissues (brain blood circulation; +90 min. (Table II)): 6,07 | PO2 vc = partial pressure of venous oxygen in the brain (brain blood circulation; +90 min. (Table II)): 21,75 | art. QO2 (brain blood circulation; +90 min. (Table II)): 14,25 | art. pH (brain blood circulation; +90 min. (Table II)): 7,455 | arterial Q gluc. (brain blood circulation; +90 min. (Table II)): 949 mg | consumption in Gluc./min. (brain blood circulation; +90 min. (Table II)): 12,49 | ΔH^+/ΔQO2 (brain blood circulation; +90 min. (Table II)): -7,96 | ΔPCO2/ΔQO2 (brain blood circulation; +90 min. (Table II)): 111,05 | ΔQO2 (brain blood circulation; +90 min. (Table II)): +9,23 | CE p. 100 glucose (brain blood circulation; +112 min. (Table II)): 12,24 p. 100 | DC = Cerebral blood flow (brain blood circulation; +112 min. (Table II)): 112,5 ml/mn | G/O (brain blood circulation; +112 min. (Table II)): 1,37 | O2 /min. (brain blood circulation; +112 min. (Table II)): 9,74 | O2 cap. = amount of oxygen supplied to the brain tissues (brain blood circulation; +112 min. (Table II)): 5,88 | PO2 vc = partial pressure of venous oxygen in the brain (brain blood circulation; +112 min. (Table II)): 23,0 | art. QO2 (brain blood circulation; +112 min. (Table II)): 13,95 | art. pH (brain blood circulation; +112 min. (Table II)): 7,44 | arterial Q gluc. (brain blood circulation; +112 min. (Table II)): 972 mg | consumption in Gluc./min. (brain blood circulation; +112 min. (Table II)): 13,39 | ΔH^+/ΔQO2 (brain blood circulation; +112 min. (Table II)): -7,39 | ΔPCO2/ΔQO2 (brain blood circulation; +112 min. (Table II)): 103,93 | ΔQO2 (brain blood circulation; +112 min. (Table II)): +8,66 | CE p. 100 glucose (brain blood circulation; +135 min. (Table II)): 12,84 p. 100 | DC = Cerebral blood flow (brain blood circulation; +135 min. (Table II)): 92,0 ml/mn | G/O (brain blood circulation; +135 min. (Table II)): 1,28 | O2 /min. (brain blood circulation; +135 min. (Table II)): 9,22 | O2 cap. = amount of oxygen supplied to the brain tissues (brain blood circulation; +135 min. (Table II)): 6,33 | PO2 vc = partial pressure of venous oxygen in the brain (brain blood circulation; +135 min. (Table II)): 19,75 | art. QO2 (brain blood circulation; +135 min. (Table II)): 14,18 | art. pH (brain blood circulation; +135 min. (Table II)): 7,48 | arterial Q gluc. (brain blood circulation; +135 min. (Table II)): 997 mg | consumption in Gluc./min. (brain blood circulation; +135 min. (Table II)): 11,78 | ΔH^+/ΔQO2 (brain blood circulation; +135 min. (Table II)): -8,75 | ΔPCO2/ΔQO2 (brain blood circulation; +135 min. (Table II)): 129,74 | ΔQO2 (brain blood circulation; +135 min. (Table II)): +10,02 | blood flow (brain blood circulation; conclusion): noticeable and extended over a large period of time increase | brain metabolism (brain blood circulation; conclusion): significant improvement | time of inducing the sleep after injection of Nembutal [3]: increase | noticeable decrease of the blood arterial pressure (incidence) (arterial blood pressure): one case out of five | effect on blood-sugar levels (blood-sugar levels): negative | effect on carrageenin-induced paw oedema [4]: negative

— US3969521A, “Pharmaceutical compositions containing tetrahydroalstonine and method for treating circulation disorders” (Science Union et Cie, Societe Francaise de Recherche Medical, priority 1974, dated 1976)
